Source: PubChem BioAssay AID504313 (Emory University Molecular Libraries Screening Center, 2011)
The source made the active and inactive calls. No rule for the calls is given here.

These compounds were tested against X-box-binding protein 1 (Homo sapiens) (UniProt P17861) (assay: XBP1 reporter suppression in cells – counter-screen, dose response (AID 504313;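 also: CHO cells carrying an XBP1 reporter stimulated with tunicamycin; potency is for inhibition of the tunicamycin-induced reporter signal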)). Conditions: XBP1 reporter cell assay, percent of control.
`C=C1C(=O)C=C2CN(C(=O)c3ccccc3)[C@@](Cc3ccc(F)cc3)(C(=O)OC)[C@@H]12` was tested, and the IC50 was 1.03 µM.
In the case of `CCCCc1nc(NCCN)c(C#N)c2c1CSC(C)(C)C2`, the IC50 is reported as “inactive”.
With `COc1cc([C@@H]2c3cc4c(cc3[C@@H](O)[C@@H](CO)[C@@H]2CO)OCO4)cc(OC)c1O[Si](C)(C)C(C)(C)C` the IC50 was “inactive”.
With `Cc1ccc(-c2nn(-c3ccccc3)cc2/C=N/NC(=O)c2ccc(Br)o2)cc1` the IC50 was “inactive”.
`Cc1nn(Cc2c(Cl)cccc2Cl)c(C)c1NC(=O)c1cn(-c2ccccc2)nc1-c1ccccc1` was tested, and the IC50 was “inactive”.
For `CCOc1cc(CNc2ccc(O)cc2)ccc1OCc1ccc(Cl)cc1Cl`, the IC50 was “inactive”.
In the case of `O=C(Nc1cc(N2CCOCC2)ncn1)NC1(C(F)(F)F)Oc2ccc(Cl)cc2O1` (stereo unspecified), the IC50 is reported as > 10 µM (inactive).
For `CCCCc1ccc(Nc2nc(CCC)cc(=O)[nH]2)cc1`, the IC50 was 2.24 µM.
`CN1C2CCC1/C(=C/c1ccccn1)C(=O)/C2=C\c1ccccn1` was tested, and the IC50 was 0.54 µM.
With `CC(C)(C)c1ccc(-c2noc(CCC(N)=O)n2)cc1` the IC50 was < 0.16 µM (inactive).
Work on `O=[N+]([O-])c1ccc(/C=N/N=C/c2ccc([N+](=O)[O-])o2)o1` yielded an IC50 of 2.59 µM.
With `CCCCCCCCNC(C)C(O)c1ccc(SC(C)C)cc1` (stereo unspecified) the IC50 was 4.76 µM.
`CC(=O)NCc1ccc(C(=O)CCl)s1` was tested, and the IC50 was “inactive”.
In the case of `CCOC(=O)Cc1csc(NC(=O)NC2(C(F)(F)F)Oc3cc(Cl)c(Cl)cc3O2)n1`, the IC50 is reported as “inactive”.
`O=C(CSC1c2ccccc2-c2ccccc21)N/N=C/c1ccccc1O` was tested, and the IC50 was > 10 µM (inactive).
With `Cc1ccc(NC(=O)NC(=O)CN2C(=O)NC3(CCCCCCC3)C2=O)c(C)c1` the IC50 was > 10 µM (inactive).
Work on `Fc1c(F)c(C(F)(F)F)c(F)c(F)c1N/N=C\c1cccs1` yielded an IC50 of 4.26 µM.
For `C/C(=N\NC(=O)c1nn(C)c(C)c1Br)c1ccc(NC(=O)c2ccoc2C)cc1`, the IC50 was > 10 µM (inactive).
Work on `CCSc1nc2ccccc2n1C(=O)/C=C\c1ccc(OC)c(OC)c1` yielded an IC50 of 4.66 µM.
With `CC(C)(C)c1ccc(O)c(N=Cc2cc(Br)ccc2O)c1` the IC50 was “inactive”.
With `Oc1ccc(Cl)cc1-c1cc(-c2ccccc2)n[nH]1` the IC50 was > 10 µM (inactive).
`CCCCS(=O)(=O)/C=C\C=C/S(=O)(=O)CCCC` gave an IC50 of 2.68 µM.
With `Oc1ccc(Br)cc1-c1cc(-c2ccccc2F)[nH]n1` the IC50 was > 10 µM (inactive).
`CCOc1ccc(-c2nc(CSCC(=O)NCc3ccco3)c(C)o2)cc1` gave an IC50 of less than 0.16 µM.
In the case of `O=C(c1ccc(Cl)cc1)c1c[nH]c(C(=O)NNc2cccc(Cl)n2)c1`, the IC50 is reported as > 10 µM (inactive).
In the case of `COC(=O)/C(=C1/Oc2cc(C)oc(=O)c2S1)C(F)(F)F`, the IC50 is reported as 2.94 µM.
`O=S1(=O)C=C(Sc2nc3cc(Cl)ccc3o2)c2ccccc21` showed an IC50 of 4.42 µM.
Compound `O=C1C=CC(O)(c2cc(=O)c3c(O)cc(O)cc3o2)C=C1` has an IC50 of 3.84 µM.
For `Cc1ccc(NN2C(=O)C=C(c3ccc(Cl)cc3)C2=O)cc1`, the IC50 was “inactive”.
`O=C(COCC(=O)Nc1cccc(C(F)(F)F)c1)Nc1cccc(C(F)(F)F)c1` was tested, and the IC50 was “inactive”.
`CC(C)(C)C(=O)Cn1ncc(Br)c(Br)c1=O` was tested, and the IC50 was > 10 µM (inactive).
For `N#Cc1nccnc1S(=O)(=O)c1cccs1`, the IC50 was “inactive”.
For `CCOC(=O)c1c(-n2c(C)cc(C=C3C(=O)NC(=S)NC3=O)c2C)sc2c1CCCC2`, the IC50 was “inactive”.
For `Oc1cccc(-c2nc3c4c(ncn3n2)-c2ccccc2CC42CCCC2)c1`, the IC50 was > 10 µM (inactive).
`O=C(Nc1ccc(Br)c(C(F)(F)F)c1)c1ccc(C(F)(F)F)cc1` gave an IC50 of 5.44 µM.
For `Cc1cc(/C=N/n2cnnc2)c(C)n1-c1ccc(OCc2ccc(F)cc2)cc1`, the IC50 was “inactive”.
Compound `O=S(=O)(Nc1cc(Sc2cccc3cccnc23)c(O)c2ccccc12)c1ccc(F)cc1` has an IC50 of 4.63 µM.
`COC(=O)CN1C(=S)N(Cc2ccccc2)C(=O)C1CC(=O)Nc1ccc(Br)cc1` (stereo unspecified) showed an IC50 of 5.87 µM.
In the case of `Cc1ccc(-c2cc3c(nn2)-c2ccccc2C3=O)cc1`, the IC50 is reported as “inactive”.
For `COc1cc(C(=O)O/N=C2\C=CC(=O)C(C)=C2)cc(OC)c1OC`, the IC50 was > 10 µM (inactive).
For `CC(C)(C)c1ccc(OCC(=O)N/N=C/C2CC=CCC2)cc1` (stereo unspecified), the IC50 was “inactive”.
`COc1ccccc1-c1cc(C(F)(F)F)nc(S(=O)(=O)CCCC(=O)Nc2cc(C)on2)n1` was tested, and the IC50 was “inactive”.
`CCN=C1NN=C(c2cc(C)n(Cc3ccco3)c2C)CS1` was tested, and the IC50 was less than 0.16 µM.
For `O=C(Nc1nccs1)c1cc2c(s1)CCCCC2`, the IC50 was > 10 µM (inactive).
For `FC(F)(F)c1cccc(NC(=S)N2CCN(c3cccc(C(F)(F)F)c3)CC2)c1`, the IC50 was 4.52 µM.
Compound `CCCCCCCC(=O)N/N=C/c1ccc(Br)cc1` has an IC50 of 4.47 µM.
`Cc1ccc(-c2nc(-c3ccccn3)no2)cc1` was tested, and the IC50 was “inactive”.
In the case of `O=C1C(C2=NC(c3ccccn3)C3C(=O)N(c4ccc(Cl)cc4Cl)C(=O)C23)=C(O)c2ccccc21` (stereo unspecified), the IC50 is reported as “inactive”.
With `Oc1ccc(Oc2ccc3c(C(F)(F)F)cc(C(F)(F)F)nc3n2)cc1` the IC50 was > 10 µM (inactive).
With `CCOC(=O)c1cc([N+](=O)[O-])c([N+](=O)[O-])cc1NC(C)=O` the IC50 was “inactive”.
With `CC(=O)C(C(C)=O)c1c(Cl)c(O)c(O)c2c(C(=O)c3ccccc3)coc12` the IC50 was “inactive”.
For `CCC1CCCCN1S(=O)(=O)c1ccc(C(=O)Nc2nnc(-c3ccccc3Cl)o2)cc1` (stereo unspecified), the IC50 was “inactive”.
For `CCCc1cc(C(=O)Cc2ccc(F)cc2)c(O)cc1O`, the IC50 was “inactive”.
With `CCC(C)NC(=O)c1c(N)n(CC2CCCO2)c2nc3ccccc3nc12` (stereo unspecified) the IC50 was > 10 µM (inactive).
For `CCOc1ccc(/C=C/C2=Cc3c(sc(NC(=O)CSc4n[nH]c(N)n4)c3C#N)C(C)(C)C2)cc1`, the IC50 was > 10 µM (inactive).
In the case of `O=C1CC(Sc2nnnn2-c2ccccc2)C(=O)N1c1cccc(Cl)c1` (stereo unspecified), the IC50 is reported as > 10 µM (inactive).
In the case of `CC[n+]1c(/C=C2\Sc3ccccc3N2C)ccc2cccc(C)c21`, the IC50 is reported as 0.24 µM.
In the case of `COC(=O)c1sc(-c2ccc(C(C)(C)C)cc2)cc1NC(=O)c1ccccc1C(=O)O`, the IC50 is reported as > 10 µM (inactive).
In the case of `CCCCCCn1c(N2CCC(C)CC2)nc2c1c(=O)[nH]c(=O)n2C`, the IC50 is reported as > 10 µM (inactive).
For `Cc1ccc(C2(c3ccc(C)cc3)CC2C(=O)Nc2ccc([N+](=O)[O-])cc2O)cc1` (stereo unspecified), the IC50 was “inactive”.
For `O=C(CCl)N1CCN2C(=O)c3ccccc3C12c1ccc(Cl)cc1` (stereo unspecified), the IC50 was “inactive”.
For `CC(C)(C)C(=O)NC(=S)NNC(=O)C(c1ccccc1)c1ccccc1`, the IC50 was > 10 µM (inactive).
For `O=C(CN1C(=O)c2ccccc2S1(=O)=O)c1ccc2c(c1)OCCCO2`, the IC50 was 0.37 µM.
With `CN1CCN(CC(=O)N2CCn3c4c(c5cc(C6CCCCC6)ccc53)CCCC42)CC1` (stereo unspecified) the IC50 was > 10 µM (inactive).
In the case of `Cn1cnc([N+](=O)[O-])c1S(=O)(=O)c1cccc(Cl)c1`, the IC50 is reported as “inactive”.
`O=Nc1ccc(O)c2ncccc12` showed an IC50 of 5.08 µM.
With `CCCCCCn1c(=O)c(C(=O)N/N=C/c2cccc(F)c2)c(O)c2ccccc21` the IC50 was “inactive”.
With `O=C(CSc1ncnc2[nH]ncc12)Nc1nc(-c2ccc(F)c(F)c2)cs1` the IC50 was > 10 µM (inactive).
`CC1=C(CO)C(=O)OC([C@@H](C)C2CC[C@H]3C4C[C@H]5O[C@]56[C@@H](O)C=CC(=O)[C@]6(C)C4CC[C@]23C)C1` (stereo partly specified) was tested, and the IC50 was > 10 µM (inactive).
With `CCOC(=O)c1c(CN2CCOCC2)n(-c2ccccc2)c2cc(Br)c(O)cc12` the IC50 was > 10 µM (inactive).
`CCOC(=O)COc1ccccc1/C=C\[N+](=O)[O-]` was tested, and the IC50 was “inactive”.
In the case of `CCOC(=O)Cc1cc(-c2ccc(O)cc2)nc2ccc3ccccc3c12`, the IC50 is reported as > 10 µM (inactive).
With `O=C(NNC(=O)c1cccc2ccccc12)c1ccc(-c2ccccc2)cc1` the IC50 was > 10 µM (inactive).
In the case of `CCOc1ccc(-n2c(SCC(=O)Nc3ccc(Br)cc3)nc3n[nH]c(C)c3c2=N)cc1`, the IC50 is reported as > 10 µM (inactive).
For `O=C(c1nnsc1S(=O)(=O)c1ccc(Cl)cc1)N1CCOCC1`, the IC50 was “inactive”.
With `Cc1ccc(OCC(=O)N2N=C(C(F)(F)F)CC2(O)C(C)(C)C)cc1C` (stereo unspecified) the IC50 was “inactive”.
For `COc1ccc(OC)c2sc(NC(=O)c3ccc(Cl)s3)nc12`, the IC50 was > 10 µM (inactive).
In the case of `CCOc1cc(/C=C2/C(=O)ON=C2C)ccc1OCc1ccc(F)cc1`, the IC50 is reported as > 10 µM (inactive).
`CS(=O)(=O)c1nc(-c2ccc(F)cc2)cc(C(F)(F)F)n1` was tested, and the IC50 was “inactive”.
`Cc1cc(C)n(-c2nc(N(c3ccccc3)c3ccccc3)nc(-n3nc(C)cc3C)n2)n1` was tested, and the IC50 was “inactive”.
With `O=C(C1=C(c2ccccc2)C(=O)c2ccccc2C1=O)c1ccccc1` the IC50 was “inactive”.
In the case of `CS(=O)(=O)c1nc(-c2ccco2)cc(C(F)(F)F)n1`, the IC50 is reported as “inactive”.
Compound `CCN1/C(=C/C=C/C=C/c2sc3ccccc3[n+]2CC)Sc2ccccc21` has an IC50 of 2.4 µM.
`Cc1ccc(-c2ccc(/C=C3\C(=O)ON=C3c3ccccc3)o2)c([N+](=O)[O-])c1` was tested, and the IC50 was > 10 µM (inactive).
`O=C(Nc1ccc([N+](=O)[O-])cc1)Nc1ccc(OC(F)F)c(Cl)c1` was tested, and the IC50 was “inactive”.
Compound `O=C1C(=C2SCCCS2)CC/C1=C\c1ccc(F)cc1` has an IC50 of 3.13 µM.
With `FC(F)(F)c1cccc(Sc2nc(-c3ccccc3)nnc2C(F)(F)F)c1` the IC50 was “inactive”.
`C=C1C(=O)O[C@@H]2C[C@@H](C)[C@@H]3C4OC4C(=O)[C@@]3(C)[C@@H](O)[C@H]12` (stereo partly specified) showed an IC50 of 4.96 µM.
For `Cn1cnc([N+](=O)[O-])c1S(=O)(=O)c1ccc(Cl)cc1`, the IC50 was “inactive”.
In the case of `COc1ccc(NC(=O)/C(Cl)=C(/Cl)S(=O)Cc2ccccc2Cl)cn1` (stereo unspecified), the IC50 is reported as 0.92 µM.
For `CCOC(=O)/C(=C\c1ccc(OC(F)F)cc1)C1=Nn2c(nnc2-c2ccc(Cl)cc2)SC1`, the IC50 was 4.7 µM.
For `CCOc1cc(/C=C\[N+](=O)[O-])ccc1OCC(=O)Nc1ccccc1C`, the IC50 was 4.59 µM.
For `CC(C)(C)C(=O)Nc1ccc(-c2nc3ccccc3c(=O)o2)cc1`, the IC50 was 1.2 µM.
With `COc1ccc(N2C(=O)CC(Sc3nnnn3-c3ccc(F)cc3)C2=O)cc1` (stereo unspecified) the IC50 was > 10 µM (inactive).
In the case of `CC1=Nc2nc(N3CCCCC3)c(C#N)c3c4c(nc(c23)N1)N(c1ccc(C(C)C)cc1)C(=O)C4`, the IC50 is reported as “inactive”.
For `CCOc1ccc(-c2cc(CCCC(=O)NCc3ccc(C)cc3)no2)cc1`, the IC50 was 0.29 µM.
`CC(C)(C)c1ccc(Oc2ccc(N)cc2)cc1` showed an IC50 of less than 0.16 µM.
In the case of `C=CCn1c(SCC(=O)Nc2ccc(-c3nc4ccc(C)cc4s3)cc2)nnc1-c1ccccc1`, the IC50 is reported as > 10 µM (inactive).
With `COc1cc(/C=C2\COC/C(=C\c3cc(OC)c(OC)c(OC)c3)C2=O)cc(OC)c1OC` the IC50 was 1.39 µM.
`CCCCCCCCCCCCCCCC[n+]1ccc(/C=N/O)cc1` was tested, and the IC50 was “inactive”.
For `CCCCCCCn1c(=O)c(C(=O)Nc2cnccn2)c(O)c2ccccc21`, the IC50 was 2.1 µM.
